In US10047069B2, “Compositions comprising an inhibitor of lysine specific demethylase-1” (Celgene Quanticel Research, Inc., priority 2015, dated 2018):
Values after ≈ are worked out from the molar mass of the structure shown.

What was measured:
Assay type in all cases: physicochemical
[1] = Thermodynamic solubility in FeSSIF; settings: for solubility at 24 h / Solubility in FeSSiF: fed state simulated intestinal fluid (FeSSIF), equilibrated at 25° C. for 24 hours; for XRPD of residue: residue of the FeSSIF solubility test, analysed by XRPD as a damp solid
Protocol: Solubility was determined by suspending sufficient compound in fed state simulated intestinal fluid (FeSSIF) to give a maximum final concentration of >3 mg/ml of the parent free-form of the compound. The suspension was equilibrated at 25° C. for 24 hours then the pH was measured. The suspension was then filtered through a glass fibre C filter. The residue was analysed by XRPD as a damp solid. The filtrate was diluted by an appropriate factor prior to analysis by HPLC. Quantitation by HPLC was performed with reference to a standard solution of approximately 0.2 mg/ml in DMSO. Different volumes of the standard, diluted and undiluted sample solutions were injected. The solubility was calculated using the peak areas determined by integration of the peak found at the same retention time as the principal peak in the standard injection. Analysis was performed on an Agilent HP1100 series system equipped with a diode array detector and using ChemStation software vB.04.03.

[2] = Stability post-storage at 40° C./75% RH assessed by XRPD; settings: for Stability post-storage at 40° C./75% RH: form change assessed by XRPD
Protocol: (§1) Representative samples for the twenty-six forms were further analysed by NMR/IC and DSC. The stability of the samples after storage at 40° C./75% RH was also assessed by XRPD. Solubility in FeSSIF media was determined for selected samples. […] IC was employed to determine the molar equivalence for inorganic counterions, sulphate and phosphate.

[3] = Gravimetric vapor sorption (GVS); settings: 25° C.
Protocol: Sorption isotherms were obtained using a SMS DVS Intrinsic moisture sorption analyzer, controlled by DVS Intrinsic Control software v1.0.1.2 (or v 1.0.1.3). The sample temperature was maintained at 25° C. by the instrument controls. The humidity was controlled by mixing streams of dry and wet nitrogen, with a total flow rate of 200 ml/min. The relative humidity was measured by a calibrated Rotronic probe (dynamic range of 1.0-100% RH), located near the sample. The weight change, (mass relaxation) of the sample as a function of % RH was constantly monitored by the microbalance (accuracy±0.005 mg). Approximately 13 mg of sample was placed in a tared mesh stainless steel basket under ambient conditions. The sample was loaded and unloaded at 40% RH and 25° C. (typical room conditions). A moisture sorption isotherm was performed as outlined below (two scans giving one complete cycle). The standard isotherm was performed at 25° C. at 10% RH intervals over a 0%-90% RH range. Data analysis was carried out using Microsoft Excel using DVS Analysis Suite v6.2 (or 6.1 or 6.0). The sample was recovered after completion of the isotherm and re-analyzed by XRPD.

[4] = Salt screen assessment compared to the HCl salt
Protocol: as §1

[5] = Thermal stability from onset of DSC events; settings: onsets of DSC events greater than 200° C.
Protocol: DSC data were collected on a Mettler DSC 823E equipped with a 34 position auto-sampler. The instrument was calibrated for energy and temperature using certified indium. Typically, 0.9-6 mg of each sample, in a pin-holed aluminum pan, was heated at 10° C./min from 25° C. to 350° C. A nitrogen purge at 50 ml/min was maintained over the sample. The instrument control and data analysis software was STARe v12.1.
The twenty remaining forms have thermal events occurring from as low as ˜30° C. These may be solvated/hydrated forms.

SMILES | solubility at 24 h ([1]; 25 °C, pH 4.9, fessif, thermodynamic from solid) [µg/mL] | solubility at 24 h ([1]; pH 4.9, thermodynamic from solid) [µg/mL] | XRPD of residue [1] | Stability after 14 days storage at 40° C./75% RH ([2]; 14 days, confirmed by XRPD) | Stability post-storage at 40° C./75% RH [2] | uptake at 90% RH by GVS [3] [%] | stability and solubility when compared to the HCl salt [4] | thermal stability [5] | Solubility in FeSSiF [1] [µg/mL]
COc1ccc(-c2c(-c3ccc(C#N)c(F)c3)nc(N3CCC(N)CC3)n(C)c2=O)cc1F.Cl [HCL 1, 4-[2-(4-aminopiperidin-1-yl)-5-(3-fluoro-4-methoxyphenyl)-1-methyl-6-oxo-1,6-dihydropyrimidin-4-yl]-2-fluorobenzonitrile hydrochloride] | 740 | 750 | Amorphous | Partial crystallization of a new form | Extra peaks observed | 14 | – | – | –
COc1ccc(-c2c(-c3ccc(C#N)c(F)c3)nc(N3CCC(N)CC3)n(C)c2=O)cc1F [PHOA 1, 4-[2-(4-aminopiperidin-1-yl)-5-(3-fluoro-4-methoxyphenyl)-1-methyl-6-oxo-1,6-dihydropyrimidin-4-yl]-2-fluorobenzonitrile] | – | – | Amorphous | – | No form change | – | improved stability and solubility | good thermal stability | 740 (≈ 1640 µM)
COc1ccc(-c2c(-c3ccc(C#N)c(F)c3)nc(N3CCC(N)CC3)n(C)c2=O)cc1F [SO4 1, 4-[2-(4-aminopiperidin-1-yl)-5-(3-fluoro-4-methoxyphenyl)-1-methyl-6-oxo-1,6-dihydropyrimidin-4-yl]-2-fluorobenzonitrile] | – | – | Amorphous | – | No form change | – | improved stability and solubility | good thermal stability | 720 (≈ 1590 µM)
COc1ccc(-c2c(-c3ccc(C#N)c(F)c3)nc(N3CCC(N)CC3)n(C)c2=O)cc1F [pTSA 1, 4-[2-(4-aminopiperidin-1-yl)-5-(3-fluoro-4-methoxyphenyl)-1-methyl-6-oxo-1,6-dihydropyrimidin-4-yl]-2-fluorobenzonitrile] | – | – | pTSA 1 | – | No form change | – | improved stability and solubility | good thermal stability | 870 (≈ 1930 µM)
